Laboratory results as given in article PMC9583322, “Vicinal Diaryl-Substituted Isoxazole and Pyrazole Derivatives with In Vitro Growth Inhibitory and In Vivo Antitumor Activity” (ACS Omega, 2022).
pIC50: −log10 of the molar value.

Legend:
[1] = test system: Huh7; experiment: SRB cytotoxicity assay; assay type: cell-based, human; conditions: 72 h treatment
Experimental: (§1) HepG2, FOCUS, Hep3B, Mahlavu, Huh7, Hep40, and PLC-PRF-5 hepatocellular carcinoma cells; MCF-7, MDA-MB-231, MDA-MB-468, SKBR3, and ZR-75 breast cancer cells; and normal-like epithelial MCF-10A breast cells were cultured in low-glucose Dulbecco’s modified Eagle’s medium (DMEM) (Biological Industries-BI) supplemented with 10% fetal bovine serum (FBS) (Gibco/Thermo Fisher Scientific), 2 mM L-Glutamine (Gibco/Thermo Fisher Scientific), 100 Units/mL Penicillin/Streptomycin, and 0.1 mM non-essential amino acid (Gibco/Thermo Fisher Scientific). SNU475 hepatocellular carcinoma cells were maintained in RPMI (Biological Industries-BI) supplemented with 10% fetal bovine serum (FBS) (Gibco/Thermo Fisher Scientific), L-Glutamine (Gibco/Thermo Fisher Scientific), and 100 Units/mL Penicillin/Streptomycin, while ZR-75 breast cancer cells were cultured RPMI (Biological Industries-BI) supplemented with 10% fetal bovine serum (FBS) (Gibco/Thermo Fisher Scientific), 1× sodium pyruvate, and %4.5 glucose. Normal-like MCF-10A breast cells were sustained in DMEM/HAM’S F12 (Hyclone) supplemented with 10% fetal bovine serum (FBS) (Gibco/Thermo Fisher Scientific), EGF (20 ng/mL), Hydrocortisone ([…]), cholera toxin (100 ng/mL), insulin (10 μg/mL), and 100 Units/mL Penicillin/Streptomycin. The cells were cultivated at 37 °C in a humidified incubator under 5% CO2.
(§2) Mahlavu, FOCUS, SNU475 (1000 cell/well in 150 μL/well); Huh7, MCF7 (2500 cell/well in 150 μL/well); HepG2, Hep3B, SKBR3 (3000 cell/well in 150 μL/well); PLC-PRF-5, Hep40 (5000 cell/well in 150 μL/well); MDA-MB-231, MDA-MB-468, MCF10A (6000 cell/well in 150 μL/well); and ZR-75 (7500 cell/well in 150 μL/well) were cultured in 96-well plates and were inoculated in an incubator for 24 hours. The compounds were dissolved in dimethyl sulfoxide (DMSO) (Sigma, St Louis, MO) as a 20 mM stock solution. The treatment of cells with the compounds was done in a concentration range starting from 40 to 2.5 μM. The compounds which were below 2.5 μM were tested in a concentration range from 2.5 to 0.15 μM. End of the 72h compound treatment, the cells were fixed using 10% (v/v) trichloroacetic acid (MERCK) for an hour and washed with ddH2O, and left for air-drying. The fixed plates were stained with 50 μL of sulforhodamine B (SRB) solution (Sigma) at RT for 10 min. To remove unbound SRB dye, acetic acid was used to wash cells three times and left for drying. The protein-bound SRB was solubilized with 10 mM Tris-base (Sigma) and their absorbance was measured with a 96-well plate reader at 515 nm wavelength (ELx800, Biotek). The IC50 values of compounds were calculated in comparison with control group DMSO. Data with R^2 values larger than 0.9 are considered significant.

[2] = test system: MCF7; experiment: SRB cytotoxicity assay; assay type: cell-based, human; conditions: 72 h treatment
Experimental: as §1, §2

| Compound | pIC50 ([1]; Homo sapiens, Huh-7, 72 h) | pIC50 ([2]; Homo sapiens, MCF7, 72 h) | melting point [°C] | pIC50 [2] | pIC50 [1] |
| --- | --- | --- | --- | --- | --- |
| Cc1ccc(-c2c(-c3ccc(OCc4ccccc4C)cc3)noc2C)cc1 [compound 47, 5-Methyl-4-(4-methylphenyl)-3-(4-((2-methylbenzyl)oxy)phenyl)isoxazole] | 5.74 | 5.33 | 130.8 to 131.8 |  |  |
| Cc1ccc(COc2ccc(-c3noc(C)c3-c3ccc(Cl)cc3)cc2)c(C)c1 [compound 31, 4-(4-Chlorophenyl)-3-(4-((2,4-dimethylbenzyl)oxy)phenyl)-5-methylisoxazole] | 4.97 | < 4.70 | 119.7 to 122.1 |  |  |
| Cc1onc(-c2ccc(OCc3cccc(F)c3)cc2)c1-c1ccc(Cl)cc1 [compound 21, 4-(4-Chlorophenyl)-3-(4-((3-fluorobenzyl)oxy)phenyl)-5-methylisoxazole] | < 4.70 | < 4.70 | 98.1 to 99.8 |  |  |
| Cc1onc(-c2ccc(OCc3ccc4ccccc4n3)cc2)c1-c1ccc(Cl)cc1 [compound 34, 4-(4-Chlorophenyl)-5-methyl-3-(4-(quinolin-2-ylmethoxy)phenyl)isoxazole] | 5.04 | < 4.70 | 164.7 to 165.8 |  |  |
| Cc1ccccc1COc1ccc(-c2noc(C)c2-c2ccccc2Cl)cc1 [compound 44, 5-Methyl-4-(2-chlorophenyl)-3-(4-((2-methylbenzyl)oxy)phenyl)isoxazole] | < 4.70 | 5.00 | 103.8 to 104.4 |  |  |
| Cc1ccccc1COc1ccc(-c2noc(C)c2-c2ccc(Cl)cc2Cl)cc1 [compound 53, 5-Methyl-4-(2,4-dichlorophenyl)-3-(4-((2-methylbenzyl)oxy)phenyl)isoxazole] | 5.09 | 4.72 | 98 to 98.4 |  |  |
| Cc1ccccc1COc1ccc(-c2noc(C)c2-c2cccc(C(F)(F)F)c2)cc1 [compound 49, 5-Methyl-4-(3-trifluoromethylphenyl)-3-(4-((2-methylbenzyl)oxy)phenyl)isoxazole] | 4.72 | < 4.70 | 120.7 to 122.4 |  |  |
| Cc1ccccc1CNc1ccc(-c2noc(C)c2-c2ccc(Cl)cc2)cc1 [compound 59, 4-(4-(4-Chlorophenyl)-5-methylisoxazol-3-yl)-N-(2-methylbenzyl)aniline] | 5.40 | ≤ 4.70 | 134.9 to 137 | < 4.70 |  |
| Cc1noc(C)c1COc1ccc(-c2noc(C)c2-c2ccc(Cl)cc2)cc1 [compound 39, 4-(4-Chlorophenyl)-3-(4-((3,5-dimethylisoxazol-4-yl)methoxy)phenyl)-5-methylisoxazole] | 5.43 | < 4.70 | 138.9 to 141.3 |  |  |
| Cc1onc(-c2ccc(OCc3ccccc3OC(F)F)cc2)c1-c1ccc(Cl)cc1 [compound 14, 4-(4-Chlorophenyl)-3-(4-((2-(difluoromethoxy)benzyl)oxy)phenyl)-5-methylisoxazole] | 4.86 | 5.07 | 95.5 to 96.9 |  |  |
| COC(=O)c1cccc(COc2ccc(-c3noc(C)c3-c3ccc(Cl)cc3)cc2)c1 [compound 23, Methyl-3-((4-(4-(4-chlorophenyl)-5-methylisoxazol-3-yl)phenoxy)methyl)benzoate] | < 4.70 | 4.89 | 121.5 to 122.8 |  |  |
| COc1cccc(COc2ccc(-c3noc(C)c3-c3ccc(Cl)cc3)cc2)c1 [compound 20, 4-(4-Chlorophenyl)-3-(4-((3-methoxybenzyl)oxy)phenyl)-5-methylisoxazole] | 5.44 | 4.92 | 105.1 to 106.8 |  |  |
| Cc1ccc(-c2c(-c3ccc(OCc4ccccc4C)cc3)noc2C)nc1 [compound 54, 5-Methyl-3-(4-((2-methylbenzyl)oxy)phenyl)-4-(5-methylpyridin-2-yl)isoxazole] | 5.19 | < 4.70 | 121.4 to 122.3 |  |  |
| 5-Methyl-4-(2,4-difluoromethylphenyl)-3-(4-((2-methylbenzyl)oxy)phenyl)isoxazole [compound 52] |  |  |  | < 4.70 | 4.82 |
| Cc1onc(-c2ccc(OCc3ccc(F)cc3)cc2)c1-c1ccc(Cl)cc1 [compound 26, 4-(4-Chlorophenyl)-3-(4-((4-fluorobenzyl)oxy)phenyl)-5-methylisoxazole] | 4.72 | 4.89 | 99.3 to 100.7 |  |  |
| Cc1onc(-c2ccc(OCc3ccccc3OC(F)(F)F)cc2)c1-c1ccc(Cl)cc1 [compound 13, 4-(4-Chlorophenyl)-5-methyl-3-(4-((2-(trifluoromethoxy)benzyl)oxy)phenyl)isoxazole] | 4.79 | < 4.70 | 85.8 to 86.7 |  |  |
| Cc1onc(-c2ccc(OCc3cccnc3)cc2)c1-c1ccc(Cl)cc1 [compound 32, 4-(4-Chlorophenyl)-5-methyl-3-(4-(pyridin-3-ylmethoxy)phenyl)isoxazole] | 5.11 | 5.08 | 115.5 to 116.4 |  |  |
| Cc1onc(-c2ccc(OCc3ccccc3F)cc2)c1-c1ccc(Cl)cc1 [compound 15, 4-(4-Chlorophenyl)-3-(4-((2-fluorobenzyl)oxy)phenyl)-5-methylisoxazole] | < 4.70 | < 4.70 | 119.5 to 120.9 |  |  |
| Cc1onc(-c2ccc(OCc3ccccc3C#N)cc2)c1-c1ccc(Cl)cc1 [compound 17, 2-((4-(4-(4-Chlorophenyl)-5-methylisoxazol-3-yl)phenoxy)methyl)benzonitrile] | < 4.70 | < 4.70 | 111.2 to 112.5 |  |  |
| 5-Methyl-4-(3-fluoromethylphenyl)-3-(4-((2-methylbenzyl)oxy)phenyl)isoxazole [compound 50] |  |  |  | < 4.70 | 4.82 |
| Cc1ccccc1COc1ccc(-c2noc(C)c2-c2ccc(Cl)cc2)cc1F [compound 57, 4-(4-Chlorophenyl)-3-(3-fluoro-4-((2-methylbenzyl)oxy)phenyl)-5-methylisoxazole] | 5.01 | < 4.70 | 108 to 110.2 |  |  |
| Cc1ccccc1COc1ccc(-c2noc(C)c2-c2ccc(N)cc2)cc1 [compound 51, 5-Methyl-4-(4-aminophenyl)-3-(4-((2-methylbenzyl)oxy)phenyl)isoxazole] | 4.77 | 4.71 | 119.4 to 121.1 |  |  |
| COc1ccc(-c2c(-c3ccc(OCc4ccccc4C)cc3)noc2C)cc1 [compound 46, 5-Methyl-4-(4-methoxyphenyl)-3-(4-((2-methylbenzyl)oxy)phenyl)isoxazole] | 5.05 | 4.89 | 121.3 to 122.7 |  |  |
| Cc1onc(-c2ccc(OCc3ccncc3)cc2)c1-c1ccc(Cl)cc1 [compound 33, 4-(4-Chlorophenyl)-5-methyl-3-(4-(pyridin-4-ylmethoxy)phenyl)isoxazole] | 4.94 | 4.84 | 124.2 to 125.8 |  |  |
| Cc1onc(-c2ccc(OCc3cncn3C(C)C)cc2)c1-c1ccc(Cl)cc1 [compound 41, 4-(4-Chlorophenyl)-3-(4-((1-isopropyl-1H-imidazol-5-yl)methoxy)phenyl)-5-methylisoxazole] | 5.60 | 4.78 | 168.4 to 170.7 |  |  |
| Cc1ccccc1COc1ccc(-c2noc(C)c2-c2ccc(Cl)cc2)c(F)c1 [compound 56, 4-(4-Chlorophenyl)-3-(2-fluoro-4-((2-methylbenzyl)oxy)phenyl)-5-methylisoxazole] | 5.65 | 5.02 | 96.1 to 98.3 |  |  |
| COc1ccc(COc2ccc(-c3noc(C)c3-c3ccc(Cl)cc3)cc2)cc1 [compound 25, 4-(4-Chlorophenyl)-3-(4-((4-methoxybenzyl)oxy)phenyl)-5-methylisoxazole] | < 4.70 | < 4.70 | 126.1 to 127.4 |  |  |
